Measurements reported in patent US12215140B2, “Method of stabilizing protein contained in specimen and solution for stabilizing protein contained in specimen” (EIKEN KAGAKU KABUSHIKI KAISHA, priority 2018, dated 2025).

Molecular target: hemoglobin (Homo sapiens, UniProt P68871+P69905)
Assay: Stability of hemoglobin in samples preserved at 37° C. in preservation solution containing no haptoglobin, Hb measured by latex agglutination method (Examples 8, 9 and Table 10)
Details: for Hb concentration / Recovery ratio with respect to Hb after 0 days: no phenylboronic acid, sugar 100 mmol/L; for recovery ratio of hemoglobin in the sample: sugar further added to phenylboronic acid 0.5 mmol/L, no haptoglobin, Feces 1, Feces 2, Feces 3
Experimental: Preservation solutions were prepared with the addition of 40 mmol/L HEPES (pH 6.8), 0.1% BSA, 0.1% NaN3, and 0 to 2.5 mmol/L phenylboronic acid. […] Samples obtained by adding hemoglobin-added fecal specimens to the preservation solutions so that the fecal concentration would be 0.5% were preserved at 37° C. for 0, 16, 38, and 62 hours. The fecal specimens were added with hemoglobin having an amount such that the hemoglobin concentration in the samples would be about 300 μg/L. Instead of the fecal specimens to which hemoglobin was added, samples containing no fecal specimens, in which hemoglobin was added to the preservation solutions so that the hemoglobin concentration in the samples would be 300 μg/L, were similarly preserved. The hemoglobin (Hb) concentrations (μg/L) in the preserved samples were measured by the latex agglutination method using the same measurement reagent and measurement device as in Example 1.
The concentration of phenylboronic acid in the preservation solutions of Example 8 was fixed to 0.5 mmol/L, preservation solutions to which sorbitol or sucrose was further added at 10 to 250 mmol/L or trehalose, glucose, fructose, or mannitol was further added at 50 to 100 mmol/L were prepared, and testing was conducted in the same manner as in Example 8. In addition, preservation solutions to which the phenylboronic acid was added but no sugar was added were prepared, preservation solutions to which the phenylboronic acid and sugar were not added were prepared for the comparative examples, and testing was conducted in the same manner.
For comparative examples, preservation solutions to which no arylboronic acid was added were prepared, and testing was conducted in the same manner.

hemoglobin, sequence (P69905 2-142): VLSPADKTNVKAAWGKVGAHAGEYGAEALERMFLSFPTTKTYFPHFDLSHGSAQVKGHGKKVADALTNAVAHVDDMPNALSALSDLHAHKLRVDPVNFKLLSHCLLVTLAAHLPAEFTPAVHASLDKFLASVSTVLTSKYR
hemoglobin, sequence (P68871 2-147): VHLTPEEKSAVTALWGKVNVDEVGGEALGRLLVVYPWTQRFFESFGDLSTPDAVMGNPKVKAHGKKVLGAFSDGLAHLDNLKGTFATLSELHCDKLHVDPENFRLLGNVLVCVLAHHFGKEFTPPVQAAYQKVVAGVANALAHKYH

## OC[C@H]1O[C@H](O[C@H]2O[C@H](CO)[C@@H](O)[C@H](O)[C@H]2O)[C@H](O)[C@@H](O)[C@@H]1O [Trehalose, trehalose]
Feces 1, 0 h at 37° C.
  Hb concentration: 268 µg/L
  Recovery ratio with respect to Hb after 0 days: 100%
Feces 1, 16 h at 37° C.
  Hb concentration: 133 µg/L
  Recovery ratio with respect to Hb after 0 days: 50%
Feces 1, 38 h at 37° C.
  Hb concentration: 41 µg/L
  Recovery ratio with respect to Hb after 0 days: 15%
Feces 1, 62 h at 37° C.
  Hb concentration: 8 µg/L
  Recovery ratio with respect to Hb after 0 days: 3%
Feces 2, 0 h at 37° C.
  Hb concentration: 254 µg/L
  Recovery ratio with respect to Hb after 0 days: 100%
Feces 2, 16 h at 37° C.
  Hb concentration: 54 µg/L
  Recovery ratio with respect to Hb after 0 days: 21%
Feces 2, 38 h at 37° C.
  Hb concentration: 1 µg/L
  Recovery ratio with respect to Hb after 0 days: 0%
Feces 2, 62 h at 37° C.
  Hb concentration: 0 µg/L
  Recovery ratio with respect to Hb after 0 days: 0%
Feces 3, 0 h at 37° C.
  Hb concentration: 260 µg/L
  Recovery ratio with respect to Hb after 0 days: 100%
Feces 3, 16 h at 37° C.
  Hb concentration: 48 µg/L
  Recovery ratio with respect to Hb after 0 days: 19%
Feces 3, 38 h at 37° C.
  Hb concentration: 0 µg/L
  Recovery ratio with respect to Hb after 0 days: 0%
Feces 3, 62 h at 37° C.
  Hb concentration: 0 µg/L
  Recovery ratio with respect to Hb after 0 days: 0%
No feces, 0 h at 37° C.
  Hb concentration: 280 µg/L
  Recovery ratio with respect to Hb after 0 days: 100%
No feces, 16 h at 37° C.
  Hb concentration: 241 µg/L
  Recovery ratio with respect to Hb after 0 days: 86%
No feces, 38 h at 37° C.
  Hb concentration: 228 µg/L
  Recovery ratio with respect to Hb after 0 days: 81%
No feces, 62 h at 37° C.
  Hb concentration: 219 µg/L
  Recovery ratio with respect to Hb after 0 days: 78%
  recovery ratio of hemoglobin in the sample: further improved

## OC[C@@H](O)[C@@H](O)[C@H](O)[C@@H](O)CO [Sorbitol, sorbitol]
Feces 1, 0 h at 37° C.
  Hb concentration: 290 µg/L
  Recovery ratio with respect to Hb after 0 days: 100%
Feces 1, 16 h at 37° C.
  Hb concentration: 146 µg/L
  Recovery ratio with respect to Hb after 0 days: 50%
Feces 1, 38 h at 37° C.
  Hb concentration: 39 µg/L
  Recovery ratio with respect to Hb after 0 days: 13%
Feces 1, 62 h at 37° C.
  Hb concentration: 1 µg/L
  Recovery ratio with respect to Hb after 0 days: 0%
Feces 2, 0 h at 37° C.
  Hb concentration: 275 µg/L
  Recovery ratio with respect to Hb after 0 days: 100%
Feces 2, 16 h at 37° C.
  Hb concentration: 61 µg/L
  Recovery ratio with respect to Hb after 0 days: 22%
Feces 2, 38 h at 37° C.
  Hb concentration: 0 µg/L
  Recovery ratio with respect to Hb after 0 days: 0%
Feces 2, 62 h at 37° C.
  Hb concentration: 0 µg/L
  Recovery ratio with respect to Hb after 0 days: 0%
Feces 3, 0 h at 37° C.
  Hb concentration: 277 µg/L
  Recovery ratio with respect to Hb after 0 days: 100%
Feces 3, 16 h at 37° C.
  Hb concentration: 49 µg/L
  Recovery ratio with respect to Hb after 0 days: 18%
Feces 3, 38 h at 37° C.
  Hb concentration: 1 µg/L
  Recovery ratio with respect to Hb after 0 days: 0%
Feces 3, 62 h at 37° C.
  Hb concentration: 0 µg/L
  Recovery ratio with respect to Hb after 0 days: 0%
No feces, 0 h at 37° C.
  Hb concentration: 300 µg/L
  Recovery ratio with respect to Hb after 0 days: 100%
No feces, 16 h at 37° C.
  Hb concentration: 263 µg/L
  Recovery ratio with respect to Hb after 0 days: 88%
No feces, 38 h at 37° C.
  Hb concentration: 245 µg/L
  Recovery ratio with respect to Hb after 0 days: 82%
No feces, 62 h at 37° C.
  Hb concentration: 235 µg/L
  Recovery ratio with respect to Hb after 0 days: 79%
  recovery ratio of hemoglobin in the sample: further improved

## OC[C@H]1O[C@@](CO)(O[C@H]2O[C@H](CO)[C@@H](O)[C@H](O)[C@H]2O)[C@@H](O)[C@@H]1O [Sucrose, sucrose]
Feces 1, 0 h at 37° C.
  Hb concentration: 271 µg/L
  Recovery ratio with respect to Hb after 0 days: 100%
Feces 1, 16 h at 37° C.
  Hb concentration: 137 µg/L
  Recovery ratio with respect to Hb after 0 days: 51%
Feces 1, 38 h at 37° C.
  Hb concentration: 45 µg/L
  Recovery ratio with respect to Hb after 0 days: 16%
Feces 1, 62 h at 37° C.
  Hb concentration: 10 µg/L
  Recovery ratio with respect to Hb after 0 days: 4%
Feces 2, 0 h at 37° C.
  Hb concentration: 255 µg/L
  Recovery ratio with respect to Hb after 0 days: 100%
Feces 2, 16 h at 37° C.
  Hb concentration: 57 µg/L
  Recovery ratio with respect to Hb after 0 days: 22%
Feces 2, 38 h at 37° C.
  Hb concentration: 3 µg/L
  Recovery ratio with respect to Hb after 0 days: 1%
Feces 2, 62 h at 37° C.
  Hb concentration: 0 µg/L
  Recovery ratio with respect to Hb after 0 days: 0%
Feces 3, 0 h at 37° C.
  Hb concentration: 257 µg/L
  Recovery ratio with respect to Hb after 0 days: 100%
Feces 3, 16 h at 37° C.
  Hb concentration: 67 µg/L
  Recovery ratio with respect to Hb after 0 days: 26%
Feces 3, 38 h at 37° C.
  Hb concentration: 0 µg/L
  Recovery ratio with respect to Hb after 0 days: 0%
Feces 3, 62 h at 37° C.
  Hb concentration: 0 µg/L
  Recovery ratio with respect to Hb after 0 days: 0%
No feces, 0 h at 37° C.
  Hb concentration: 278 µg/L
  Recovery ratio with respect to Hb after 0 days: 100%
No feces, 16 h at 37° C.
  Hb concentration: 245 µg/L
  Recovery ratio with respect to Hb after 0 days: 88%
No feces, 38 h at 37° C.
  Hb concentration: 229 µg/L
  Recovery ratio with respect to Hb after 0 days: 83%
No feces, 62 h at 37° C.
  Hb concentration: 224 µg/L
  Recovery ratio with respect to Hb after 0 days: 81%
  recovery ratio of hemoglobin in the sample: further improved
